For 18 compounds, IC50 and Kd results are on record in ChEMBL document CHEMBL5131479, “Phage display-based discovery of cyclic peptides against the broad spectrum bacterial anti-virulence target CsrA” (Eur J Med Chem, 2022).

Where a SMILES comes first, the peptide text is derived from it. Bridges are numbered along the chain shown (N, C = ends). Triazole bridges read from a SMILES are 1,4-linked. [ ]: non-standard residue; d: D form. Ala(indol-2-yl) = N[C@@H](Cc1cc2ccccc2[nH]1)C(=O)O; Dap(N3) = [N-]=[N+]=NC[C@H](N)C(=O)O; Aha = [N-]=[N+]=NCC[C@H](N)C(=O)O; Pra = C#CC[C@H](N)C(=O)O

One may read the IC50 as the concentration that inhibits the measured activity by half. In general, Kd refers to the constant that tells how readily two partners part at equilibrium. Read a low Kd as tighter binding.

The nature of test [1]: Inhibition of 5'-UUCACGGAGAA[flc] mRNA binding to biotinylated His6-tagged Yersinia pseudotuberculosis CsrA measured by fluorescence polarization assay.
The target of a further test is Carbon storage regulator (Escherichia coli, UniProt P69913). Kind of test: Inhibition of 5'-AGACAAGGAUGU[flc] mRNA binding to biotinylated His6-tagged Escherichia coli CsrA measured by fluorescence polarization assay. (In general: In fluorescence polarisation assays a small probe gives low polarisation when free and higher when bound to something large.)
Chain of Carbon storage regulator (P69913 whole entry): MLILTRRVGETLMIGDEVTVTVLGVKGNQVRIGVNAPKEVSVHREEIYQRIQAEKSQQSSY
A short description of test [2]: Inhibition of 5'-UUCACGGAGAA[flc] mRNA binding to biotinylated His6-tagged Yersinia pseudotuberculosis CsrA measured in presence of 5 mM DTT by fluorescence polarization assay.
The nature of test [3]: Binding affinity towards biotinylated His6-tagged Yersinia pseudotuberculosis CsrA measured by Microscale thermophoresis assay (MST). A general note: MST reads how a fluorescent partner responds to local heating, with and without ligand.

As to `CC(=O)N[C@H](C(=O)N[C@H]1CCn2nncc2C[C@@H](C(=O)N[C@@H](Cc2c[nH]c3ccccc23)C(N)=O)NC(=O)[C@H](CC(C)C)NC(=O)[C@H](CCC(=O)O)NC(=O)[C@H](CO)NC1=O)C(C)C`, the values for the 50% inhibitory concentration (IC50) (in test [1]; on Carbon storage regulator) were 309 µM and 83.4 µM, respectively.
In the same order, the values of `CC(=O)N[C@H](C(=O)N[C@H]1Cc2cnnn2CC[C@@H](C(=O)N[C@@H](Cc2c[nH]c3ccccc23)C(N)=O)NC(=O)[C@H](CC(C)C)NC(=O)[C@H](CCC(=O)O)NC(=O)[C@H](CO)NC1=O)C(C)C` are 337 µM and 51.6 µM.
In turn, `CC[C@H](C)[C@H](NC(=O)[C@H]1CCCCN1C)C(=O)N[C@H](CCc1nc(C(=O)N[C@@H](Cc2ccc(O)cc2)C[C@H](C)C(=O)O)cs1)C(C)C` displayed a half-maximal inhibitory concentration (IC50) in test [1] of 11 µM.
With `CC(=O)N[C@H](C(=O)N[C@H]1Cc2cnnn2C[C@@H](C(=O)N[C@@H](Cc2c[nH]c3ccccc23)C(N)=O)NC(=O)[C@H](CC(C)C)NC(=O)[C@H](CCC(=O)O)NC(=O)[C@H](CO)NC1=O)C(C)C`, the values for the IC50 (in test [1]; on Carbon storage regulator) were 178 µM and 48.1 µM, respectively.
`CC(=O)N[C@@H](C)C(=O)N[C@H]1CSSC[C@@H](C(=O)N[C@@H](Cc2cc3ccccc3[nH]2)C(N)=O)NC(=O)[C@H](CC(C)C)NC(=O)[C@H](CCC(=O)O)NC(=O)[C@H](CO)NC1=O` (Ac-ACSELC[Ala(indol-2-yl)]-NH2; disulfide 2-6): the IC50 in test [1] came to 114 µM.
Still for that read-out and setting: the value for `CC(=O)N[C@H]1CSSC[C@@H](C(=O)N[C@@H](Cc2cc3ccccc3[nH]2)C(N)=O)NC(=O)[C@H](CC(C)C)NC(=O)[C@H](CCC(=O)O)NC(=O)[C@H](CO)NC1=O` (Ac-CSELC[Ala(indol-2-yl)]-NH2; disulfide 1-5) was 128 µM; that for `CC(=O)N[C@H](C(=O)N[C@H]1CSSC[C@@H](C(=O)N[C@@H](Cc2cc3ccccc3[nH]2)C(N)=O)NC(=O)[C@H](CC(C)C)NC(=O)[C@H](CCC(=O)O)NC(=O)[C@H](C)NC1=O)C(C)C` (Ac-VCAELC[Ala(indol-2-yl)]-NH2; disulfide 2-6) was more than 1000 µM; that for `CC(=O)N[C@H](C(=O)N[C@H]1CSSC[C@@H](C(=O)N[C@@H](Cc2cc3ccccc3[nH]2)C(N)=O)NC(=O)[C@H](CC(C)C)NC(=O)[C@H](C)NC(=O)[C@H](CO)NC1=O)C(C)C` (Ac-VCSALC[Ala(indol-2-yl)]-NH2; disulfide 2-6) was 22.8 µM.
Still for that read-out and setting: the value for `CC(=O)N[C@H](C(=O)N[C@H]1CSSC[C@@H](C(=O)N[C@@H](Cc2cc3ccccc3[nH]2)C(N)=O)NC(=O)[C@H](C)NC(=O)[C@H](CCC(=O)O)NC(=O)[C@H](CO)NC1=O)C(C)C` (Ac-VCSEAC[Ala(indol-2-yl)]-NH2; disulfide 2-6) was 57.9 µM; that for `CC(=O)N[C@H](C(=O)N[C@H]1CSSC[C@@H](C(N)=O)NC(=O)[C@H](CC(C)C)NC(=O)[C@H](CCC(=O)O)NC(=O)[C@H](CO)NC1=O)C(C)C` (Ac-VCSELC-NH2; disulfide 2-6) was more than 1000 µM; that for `CC(=O)N[C@H](C(=O)N[C@H]1CSSC[C@@H](C(=O)N[C@@H](C)C(N)=O)NC(=O)[C@H](CC(C)C)NC(=O)[C@H](CCC(=O)O)NC(=O)[C@H](CO)NC1=O)C(C)C` (Ac-VCSELCA-NH2; disulfide 2-6) was more than 500 µM.
Take `CC(=O)N[C@H](C(=O)N[C@H]1CSSC[C@@H](C(=O)N[C@@H](Cc2cc3ccccc3[nH]2)C(N)=O)NC(=O)[C@H](CC(C)C)NC(=O)[C@H](CCC(=O)O)NC(=O)[C@H](CO)NC1=O)C(C)C` (Ac-VCSELC[Ala(indol-2-yl)]-NH2; disulfide 2-6): the IC50 in test [1] is 6.9 µM; in test [2], more than 1000 µM; on Carbon storage regulator it was 182 µM. Further, in test [3], the dissociation constant Kd stood at 10.5 µM.
For the compound `CC(=O)N[C@H](C(=O)N[C@H]1CSSC[C@@H](C(=O)N[C@@H](Cc2cc3ccccc3[nH]2)C(=O)O)NC(=O)[C@H](CC(C)C)NC(=O)[C@H](CCC(=O)O)NC(=O)[C@H](CO)NC1=O)C(C)C` (Ac-VCSELC[Ala(indol-2-yl)]-OH; disulfide 2-6), the IC50 in test [1] amounted to 17.4 µM.
Consider `CC(=O)N[C@H](C(=O)N[C@H]1Cn2cc(nn2)C[C@@H](C(=O)N[C@@H](Cc2c[nH]c3ccccc23)C(N)=O)NC(=O)[C@H](CC(C)C)NC(=O)[C@H](CCC(=O)O)NC(=O)[C@H](CO)NC1=O)C(C)C` (Ac-V[Dap(N3)]SEL[Pra]W-NH2; triazole 2-6), for which the values for the concentration for half-maximal inhibition (IC50) (in test [1]; on Carbon storage regulator) were 92.8 µM and 6.8 µM, respectively.
In the same order, the values of `CC(=O)N[C@H](C(=O)N[C@H]1Cc2cn(nn2)CC[C@@H](C(=O)N[C@@H](Cc2c[nH]c3ccccc23)C(N)=O)NC(=O)[C@H](CC(C)C)NC(=O)[C@H](CCC(=O)O)NC(=O)[C@H](CO)NC1=O)C(C)C` (Ac-V[Pra]SEL[Aha]W-NH2; triazole 2-6) are 76 µM and 3.4 µM.
In the same order, the values of `CC(=O)N[C@H](C(=O)N[C@H]1Cc2cn(nn2)C[C@@H](C(=O)N[C@@H](Cc2c[nH]c3ccccc23)C(N)=O)NC(=O)[C@H](CC(C)C)NC(=O)[C@H](CCC(=O)O)NC(=O)[C@H](CO)NC1=O)C(C)C` (Ac-V[Pra]SEL[Dap(N3)]W-NH2; triazole 2-6) are 35.3 µM and 4.9 µM.
For `CC(C)C[C@@H]1NC(=O)[C@H](CCC(=O)O)NC(=O)[C@H](CO)NC(=O)[C@@H](NC(=O)[C@@H](N)C(C)C)CSSC[C@@H](C(=O)N[C@@H](Cc2cc3ccccc3[nH]2)C(N)=O)NC1=O` (H-VCSELC[Ala(indol-2-yl)]-NH2; disulfide 2-6), the IC50 in test [1] came out at 27.6 µM.
For Ac-VASELAW-NH2, the IC50 in test [1] is more than 1000 µM.
